Key:
[1] = Stability evaluation of solution formulation (Experimental Example 2); assay type: physicochemical; settings: for Stability / conversion to Alvocidib in solution formulation at pH 3: pH 3, 5° C.; for Stability / conversion to Alvocidib in solution formulation at pH 3 / Stability / conversion to Alvocidib in solution formulation at pH 4: up to 4 weeks; for Stability / conversion to Alvocidib in solution formulation at pH 4: pH 4, 5° C.
Procedure: For Example 1, Example 2, Example 5, Example 6, Comparative Example 13 and Comparative Example 14, the attrition rate of the test compound and the conversion rate of the test compound to Alvocidib in a solution formulation were calculated by the following method.
Example 1, Example 2, Example 5, Example 6, Comparative Example 13 and Comparative Example 14 were each added to buffer solutions adjusted to pH 3.0, 4.0 and 5.0, respectively, at a concentration of 0.1 mg/mL, and left at 5° C. After 0, 1, 2 and 4 weeks, the residual rates of the compounds of Example 1, Example 2, […], Comparative Example 13 and Comparative Example 14 and the production rate of Alvocidib were determined by HPLC.
The buffer solutions used at each pH are as follows. • pH 3.0: 5 mM tartrate buffer solution/10% sucrose solution (pH 3.0) • pH 4.0: 5 mM tartrate buffer solution/10% sucrose solution (pH 4.0) • pH 5.0: 5 mM tartrate buffer solution/10% sucrose solution (pH 5.0)
The measurement conditions for HPLC are as follows.
• column: Acquity UPLC BEH C18, 1.7 um, 50×2.1 mm • column temperature: 40° C. • mobile phase: • A: water containing 0.1% trifluoroacetic acid • B: acetonitrile • A/B (min): • 80/20(0)→75/25(3)→0/100(3.5)→0/100(4)→80/20(4.01)→80/20(5) • flow rate: 0.8 mL/min • detection: ultraviolet visible detector, measurement wavelength 254 nm • injection: 3 μL

A673 cells = test: Drug efficacy evaluation test using tumor-bearing mice transplanted with A673 cells (Experimental Example 8); assay type: in vivo, BALB/c mice; settings: liposome formulation, tail vein, 50 mg/kg twice a week
Procedure: The liposome formulation encapsulating the compound of the present disclosure was treated and evaluated for anti-tumor effect and weight loss.
The liposome formulations were prepared as follows. The liposomes encapsulating the compounds of Example 1, Example 2, Example 5 and Example 6 were prepared in the same manner as in Experimental Example 4, respectively. The liposome outer solution was replaced with 10 mM tartrate buffer solution/10% sucrose solution (pH4.0) using a dialysis cassette (Slide-A-Lyzer G2 Dialysis Cassettes 20K MWCO, manufactured by Thermo Scientific), followed by filtration through a 0.22 μm membrane filter.
A673 cells (ATCC) were intradermally transplanted into 5-week-old BALB/c mice (CAnN.Cg-Foxnlnu/CrlCrlj, female, Charles River, Japan) around the ventral region at 3×10^6 cells/mouse. After confirming the engraftment of A673 cells 6 days after transplantation, they were divided into groups based on tumor diameter and body weight, and liposome formulations encapsulating Example 1, Example 2, Example 5 and Example 6 were administered through the tail vein at dose of 50 mg/kg twice a week, respectively. […] The tumor volume was measured over time from the start of administration, and the tumor volume reduction effect due to compound administration was evaluated. The tumor volume was calculated by the following formula using the short and long diameters of the tumor measured with an electronic caliper (Mitutoyo). For comparison in this test, an empty liposome solution prepared in the same manner as in Experimental Example 1 was used.
(§1) The anti-tumor effect was evaluated by comparing the control group administered with the empty liposome solution and the administration group of the compound of the present disclosure, and calculating T/C by the following formula.

EMT6 cells = test: Drug efficacy evaluation test using tumor-bearing mice transplanted with EMT6 cells (Experimental Example 7); assay type: in vivo, BALB/c mice; settings: liposome formulation, tail vein, 25 mg/kg and 50 mg/kg twice a week
Procedure: The liposome formulation encapsulating the compound of the present disclosure was treated and evaluated for anti-tumor effect.
The liposome formulations were prepared as follows. The liposomes encapsulating the compounds of Example 3 and Example 4 were prepared in the same manner as in Experimental Example 4, respectively. The liposome outer solution was replaced with 10 mM tartrate buffer solution/10% sucrose solution (pH 4) using Sephadex G-25 column (PD-10, manufactured by GE Healthcare), followed by concentration by an ultrafiltration filter (AmiconUltra, 100K, 15 mL, manufactured by Merck), and filtration through a 0.22 μm membrane filter.
EMT6 cells (ATCC) were intradermally transplanted into 5-week-old BALB/c mice (BALB/cAnNCrlCrlj, female, Charles River, Japan) around the ventral region at 5×10^5 cells/mouse. […] The tumor volume was measured over time from the start of administration, and the tumor volume reduction effect due to compound administration was evaluated. The tumor volume was calculated by the following formula using the short and long diameters of the tumor measured with an electronic caliper (Mitutoyo). […]
as §1

[2] = solution formulation, pH3.0, 0 week
[3] = solution formulation, pH3.0, 1 week
[4] = solution formulation, pH3.0, 2 week
[5] = solution formulation, pH3.0, 4 week
[6] = solution formulation, pH4.0, 0 week
[7] = solution formulation, pH4.0, 1 week
[8] = solution formulation, pH4.0, 2 week
[9] = solution formulation, pH4.0, 4 week
[10] = solution formulation, pH5.0, 0 week
[11] = solution formulation, pH5.0, 1 week
[12] = solution formulation, pH5.0, 2 week
[13] = solution formulation, pH5.0, 4 week

Structure (SMILES) | Stability / conversion to Alvocidib in solution formulation at pH 3 [1] | Stability / conversion to Alvocidib in solution formulation at pH 4 [1] | Production rate of Alvocidib [1, 2] [%] | Production rate of Alvocidib [1, 3] [%] | Production rate of Alvocidib [1, 4] [%] | Production rate of Alvocidib [1, 5] [%] | Production rate of Alvocidib [1, 6] [%] | Production rate of Alvocidib [1, 7] [%] | Production rate of Alvocidib [1, 8] [%] | Production rate of Alvocidib [1, 9] [%] | Production rate of Alvocidib [1, 10] [%] | Production rate of Alvocidib [1, 11] [%] | Production rate of Alvocidib [1, 12] [%] | Production rate of Alvocidib [1, 13] [%] | Effect on tumor volume (A673 cells) | Residual rate [1, 2] [%] | Residual rate [1, 3] [%] | Residual rate [1, 4] [%] | Residual rate [1, 5] [%] | Residual rate [1, 6] [%] | other results
CCN(C[C@@H]1CCCCN1)C(=O)Oc1cc(O)c2c(=O)cc(-c3ccccc3Cl)oc2c1[C@H]1CCN(C)C[C@H]1O [Example 1, 2-(2-chlorophenyl)-5-hydroxy-8-[(3S,4R)-3-hydroxy-1-methylpiperidin-4-yl]-4-oxo-4H-1-benzopyran-7-yl ethyl{[(2S)-piperidin-2-yl]methyl}carbamate ditrifluoroacetate] | stable | stable | 0.0 | 0.0 | 0.1 | 0.1 | 0.0 | 0.1 | 0.2 | 0.4 | 0.1 | 1.2 | 1.9 | 3.2 | significantly inhibited the increase in tumor volume | – | – | – | – | – | Residual rate ([1]; solution formulation pH3.0, 0 week, 5° C., 0.1 mg/mL): 99.2%; Residual rate ([1]; solution formulation pH3.0, 1 week, 5° C., 0.1 mg/mL): 99.2%; Residual rate ([1]; solution formulation pH3.0, 2 weeks, 5° C., 0.1 mg/mL): 99.0%; Residual rate ([1]; solution formulation pH3.0, 4 weeks, 5° C., 0.1 mg/mL): 99.0%; Residual rate ([1]; solution formulation pH4.0, 0 week, 5° C., 0.1 mg/mL): 99.5%; Residual rate ([1]; solution formulation pH4.0, 1 week, 5° C., 0.1 mg/mL): 99.3%; Residual rate ([1]; solution formulation pH4.0, 2 weeks, 5° C., 0.1 mg/mL): 99.1%; Residual rate ([1]; solution formulation pH4.0, 4 weeks, 5° C., 0.1 mg/mL): 99.1%; Residual rate ([1]; solution formulation pH5.0, 0 week, 5° C., 0.1 mg/mL): 99.4%; Residual rate ([1]; solution formulation pH5.0, 1 week, 5° C., 0.1 mg/mL): 98.5%; Residual rate ([1]; solution formulation pH5.0, 2 weeks, 5° C., 0.1 mg/mL): 97.6%; Residual rate ([1]; solution formulation pH5.0, 4 weeks, 5° C., 0.1 mg/mL): 96.5%; Weight loss of 10% or more compared to the start of administration (A673 cells): without weight loss
CCN(C[C@H]1CCCCN1)C(=O)Oc1cc(O)c2c(=O)cc(-c3ccccc3Cl)oc2c1[C@H]1CCN(C)C[C@H]1O [Example 2, 2-(2-chlorophenyl)-5-hydroxy-8-[(3S,4R)-3-hydroxy-1-methylpiperidin-4-yl]-4-oxo-4H-1-benzopyran-7-yl ethyl{[(2R)-piperidin-2-yl]methyl}carbamate] | stable | stable | 0.0 | 0.0 | 0.0 | 0.1 | 0.0 | 0.1 | 0.2 | 0.3 | 0.1 | 1.1 | 1.9 | 3.1 | inhibited the increase in tumor volume | 96.5 | 96.5 | 96.4 | 96.5 | 96.4 | Residual rate [1, 7]: 96.5%; Residual rate [1, 8]: 96.4%; Residual rate [1, 9]: 96.4%; Residual rate [1, 10]: 96.4%; Residual rate [1, 11]: 95.5%; Residual rate [1, 12]: 94.5%; Residual rate [1, 13]: 93.0%; Weight loss of 10% or more compared to the start of administration (A673 cells): without weight loss
CN1CC[C@H](c2c(OC(=O)N(C)C[C@@H]3CCCCN3)cc(O)c3c(=O)cc(-c4ccccc4Cl)oc23)[C@H](O)C1 [Example 3, 2-(2-chlorophenyl)-5-hydroxy-8-[(3S,4R)-3-hydroxy-1-methylpiperidin-4-yl]-4-oxo-4H-1-benzopyran-7-yl methyl{[(2S)-piperidin-2-yl]methyl}carbamate] | – | – | – | – | – | – | – | – | – | – | – | – | – | – | – | – | – | – | – | – | Effect on tumor volume (EMT6 cells): significantly inhibited the increase in tumor volume
CCCN(C[C@@H]1CCCCN1)C(=O)Oc1cc(O)c2c(=O)cc(-c3ccccc3Cl)oc2c1[C@H]1CCN(C)C[C@H]1O [Example 5, 2-(2-chlorophenyl)-5-hydroxy-8-[(3S,4R)-3-hydroxy-1-methylpiperidin-4-yl]-4-oxo-4H-1-benzopyran-7-yl {[(2S)-piperidin-2-yl]methyl}propylcarbamate] | stable | stable | 0.2 | 0.2 | 0.3 | 0.3 | 0.2 | 0.3 | 0.4 | 0.5 | 0.4 | 1.2 | 2.1 | 3.7 | inhibited the increase in tumor volume | 98.2 | 98.2 | 98.1 | 98.1 | 98.2 | Residual rate [1, 7]: 98.2%; Residual rate [1, 8]: 98.1%; Residual rate [1, 9]: 98.1%; Residual rate [1, 10]: 98.1%; Residual rate [1, 11]: 97.2%; Residual rate [1, 12]: 96.6%; Residual rate [1, 13]: 95.0%
CCCN(C[C@H]1CCCCN1)C(=O)Oc1cc(O)c2c(=O)cc(-c3ccccc3Cl)oc2c1[C@H]1CCN(C)C[C@H]1O [Example 6, 2-(2-chlorophenyl)-5-hydroxy-8-[(3S,4R)-3-hydroxy-1-methylpiperidin-4-yl]-4-oxo-4H-1-benzopyran-7-yl {[(2R)-piperidin-2-yl]methyl}propylcarbamate] | stable | stable | 0.5 | 0.5 | 0.6 | 0.6 | 0.5 | 0.7 | 0.8 | 0.9 | 0.7 | 1.6 | 2.6 | 4.6 | inhibited the increase in tumor volume | 98.8 | 98.8 | 98.8 | 98.8 | 98.8 | Residual rate [1, 7]: 98.7%; Residual rate [1, 8]: 98.5%; Residual rate [1, 9]: 98.2%; Residual rate [1, 10]: 98.7%; Residual rate [1, 11]: 97.0%; Residual rate [1, 12]: 95.3%; Residual rate [1, 13]: 91.8%

— patent US12617779B2, “Self degradation-type CDK9 inhibitor prodrug and liposome encapsulating same” (Sumitomo Pharma Co., Ltd., priority 2021, dated 2026)
